*1 amine or outer side, *2 acyl side, *3 side chain or, on linkers, in order; H or OH if unused. Where a SMILES comes first, the peptide text is derived from it. Bridges are numbered along the chain shown (N, C = ends). [ ]: non-standard residue; d: D form. The star is where a group is joined. hPhe(3-Cl-4-CF3) = N[C@@H](CCc1ccc(C(F)(F)F)c(Cl)c1)C(=O)O; X22 = C=CCCN([C@@H](Cc1ccc(C(F)(F)F)cc1)C(=O)[*:2])[*:1]; X33 = O=C([C@H](Cc1ccc(C(F)(F)F)cc1)N(CC1CC1)[*:1])[*:2]; NPrPhe(4-CF3) = CCCN[C@@H](Cc1ccc(C(F)(F)F)cc1)C(=O)O; NMeGly(cPent) = CN[C@H](C(=O)O)C1CCCC1; Pro(4,4-F2) = O=C(O)[C@@H]1CC(F)(F)CN1; Hyp = O=C(O)[C@@H]1C[C@@H](O)CN1; NMeD = CN[C@@H](CC(=O)O)C(=O)O; NMeL = CN[C@@H](CC(C)C)C(=O)O; X10 = N#CCN(CC(=O)[*:2])[*:1]; Morpholide = C1CN(*)CCO1; NMeA = CN[C@@H](C)C(=O)O; Ac5c = NC1(C(=O)O)CCCC1; Aze = O=C(O)[C@@H]1CCN1; Aib = CC(C)(N)C(=O)O; Sar = CNCC(=O)O
Columns and labels:
HRAS wild-type protein = HRAS wild-type protein (Homo sapiens, UniProt P01112); assay: Binding to HRAS by surface plasmon resonance (SPR), KD and KD ratio to KRAS
How it was run: (§1)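 Recombinant RAS proteins bearing a biotinylated Avi tag and loaded with GDP served as the captured ligand, recaptured fresh every cycle. Binding responses were referenced to an uncoated surface and a buffer-only blank cycle. Dissociation constants were obtained by 1:1 model fitting at 30°C.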

[1] = target: GDP-bound NRAS wild-type protein (Homo sapiens, UniProt P01111); assay: Binding to NRAS by surface plasmon resonance (SPR), KD and KD ratio to KRAS
How it was run: as §1

[2] = test system: human lung cancer strain NCI-H441; format: cell-based
How it was run: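 Signal came from […] measured per well once the reagent was added. Beforehand, cells were cultured at 37°C and 5% carbon dioxide on a compound series serially diluted in dimethyl sulfoxide.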

[3] = ratio of KD for HRAS wild-type protein to KD for KRAS
[4] = ratio of KD for GDP-bound NRAS wild-type protein to KD for KRAS
[5] = ratio of the KD value with respect to HRAS wild-type protein to the KD value with respect to KRAS
[6] = ratio of the KD value with respect to GDP-bound NRAS wild-type protein to the KD value with respect to KRAS

Sequence of GDP-bound NRAS wild-type protein (P01111 whole entry): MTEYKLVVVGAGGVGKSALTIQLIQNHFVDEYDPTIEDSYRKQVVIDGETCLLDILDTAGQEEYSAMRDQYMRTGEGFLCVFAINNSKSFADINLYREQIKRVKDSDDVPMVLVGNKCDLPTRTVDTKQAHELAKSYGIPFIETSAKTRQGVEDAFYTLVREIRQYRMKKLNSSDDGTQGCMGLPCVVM
Sequence of HRAS wild-type protein (P01112 whole entry): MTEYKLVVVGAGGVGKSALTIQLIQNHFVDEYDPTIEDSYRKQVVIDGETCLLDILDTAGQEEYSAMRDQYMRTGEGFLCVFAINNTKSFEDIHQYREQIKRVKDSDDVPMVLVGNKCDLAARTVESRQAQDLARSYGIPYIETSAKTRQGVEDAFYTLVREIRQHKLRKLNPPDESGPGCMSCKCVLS

| SMILES | IC50 [2] [nM] | HRAS /KRAS (HRAS wild-type protein; [3]) | NRAS /KRAS [1, 4] | HRAS /KRAS (HRAS wild-type protein; [5]) | NRAS /KRAS [1, 6] | HRAS /KRAS (HRAS wild-type protein; ratio of KD value for HRAS wild-type protein to KD value for KRAS (SPR)) | NRAS /KRAS ([1]; ratio of KD value for GDP-bound NRAS wild-type protein to KD value for KRAS (SPR)) |
| --- | --- | --- | --- | --- | --- | --- | --- |
| CCCN1C(=O)CN(C)C(=O)CN(CC#N)C(=O)[C@H]([C@@H](C)CC)NC(=O)[C@H](CC(C)C)N(C)C(=O)C[C@@H](C(=O)N2CCOCC2)N(C)C(=O)[C@H](C2CCCC2)N(C)C(=O)C2(CCCC2)NC(=O)[C@@H]2CCCN2C(=O)[C@H](CCc2ccc(C(F)(F)F)c(Cl)c2)NC(=O)CN(C)C(=O)[C@@H]1Cc1ccc(C(F)(F)F)cc1 [PP0254] ([NMeL]I[X10][Sar][NPrPhe(4-CF3)][Sar][hPhe(3-Cl-4-CF3)]P[Ac5c][NMeGly(cPent)][NMeD]-Morpholide; lactam N-11) | 5.6 | C (A compound having a KD ratio of 0.1 or more and less than 3 is denoted as C) | B (a compound having 3 or more and less than 10 is denoted as B) | – | – | – | – |
| C=CCCN1C(=O)[C@@H]2CCN2C(=O)[C@H](C)N(C)C(=O)[C@H]([C@@H](C)CC)NC(=O)[C@H](CC(C)C)N(C)C(=O)C[C@@H](C(=O)N2CCOCC2)N(C)C(=O)[C@H](C2CCCC2)N(C)C(=O)C2(CCCC2)NC(=O)[C@@H]2CCCN2C(=O)[C@H](CCc2ccc(C(F)(F)F)c(Cl)c2)NC(=O)CN(C)C(=O)[C@@H]1Cc1ccc(C(F)(F)F)cc1 [PP0115] ([NMeL]I[NMeA][Aze][X22][Sar][hPhe(3-Cl-4-CF3)]P[Ac5c][NMeGly(cPent)][NMeD]-Morpholide; lactam N-11) | 2 | C (A compound having a KD ratio of 0.1 or more and less than 3 is denoted as C) | C (A compound having a KD ratio of 0.1 or more and less than 3 is denoted as C) | – | – | – | – |
| CC[C@H](C)[C@@H]1NC(=O)[C@H](CC(C)C)N(C)C(=O)C[C@@H](C(=O)N2CCOCC2)N(C)C(=O)[C@H](C2CCCC2)N(C)C(=O)C2(CCCC2)NC(=O)[C@@H]2CCCN2C(=O)[C@H](CCc2cc(F)c(C(F)(F)F)c(F)c2)NC(=O)CN(C)C(=O)[C@H](Cc2ccc(C(F)(F)F)cc2)N2CCCCC[C@@H](C2=O)N(C)C(=O)[C@@H]2CCCN2C1=O [PP0485] | 1260 | – | – | B (a compound having 3 or more and less than 10 is denoted as B) | A (a compound having 10 or more and less than 20 is denoted as A) | – | – |
| CCCN1C(=O)[C@@H]2CCN2C(=O)[C@H](C)N(C)C(=O)[C@H]([C@@H](C)CC)NC(=O)[C@H](CC(C)C)N(C)C(=O)C[C@@H](C(=O)N2CCOCC2)N(C)C(=O)[C@H](C2CCCC2)N(C)C(=O)C2(CCCC2)NC(=O)[C@@H]2CC(F)(F)CN2C(=O)[C@H](CCc2ccc(C(F)(F)F)c(Cl)c2)NC(=O)CN(C)C(=O)[C@@H]1Cc1ccc(C(F)(F)F)cc1 [PP0196] ([NMeL]I[NMeA][Aze][NPrPhe(4-CF3)][Sar][hPhe(3-Cl-4-CF3)][Pro(4,4-F2)][Ac5c][NMeGly(cPent)][NMeD]-Morpholide; lactam N-11) | 3.7 | C (A compound having a KD ratio of 0.1 or more and less than 3 is denoted as C) | C (A compound having a KD ratio of 0.1 or more and less than 3 is denoted as C) | – | – | – | – |
| CC[C@H](C)[C@@H]1NC(=O)[C@H](CC(C)C)N(C)C(=O)C[C@@H](C(=O)N2CCOCC2)N(C)C(=O)[C@H](C2CCCC2)N(C)C(=O)C2(CCCC2)NC(=O)[C@@H]2CCCN2C(=O)[C@H](CCc2ccc(C(F)(F)F)c(Cl)c2)NC(=O)CN(C)C(=O)[C@H](Cc2ccc(C(F)(F)F)cc2)N(CC2CC2)C(=O)CN(C)C(=O)CN(C)C1=O [PP0122] ([NMeL]I[Sar][Sar][X33][Sar][hPhe(3-Cl-4-CF3)]P[Ac5c][NMeGly(cPent)][NMeD]-Morpholide; lactam N-11) | 12 | C (A compound having a KD ratio of 0.1 or more and less than 3 is denoted as C) | C (A compound having a KD ratio of 0.1 or more and less than 3 is denoted as C) | – | – | – | – |

Second part, led by results:

| IC50 [2] [nM] | SMILES | HRAS /KRAS (HRAS wild-type protein; [3]) | NRAS /KRAS [1, 4] | HRAS /KRAS (HRAS wild-type protein; [5]) | NRAS /KRAS [1, 6] | HRAS /KRAS (HRAS wild-type protein; ratio of KD value for HRAS wild-type protein to KD value for KRAS (SPR)) | NRAS /KRAS ([1]; ratio of KD value for GDP-bound NRAS wild-type protein to KD value for KRAS (SPR)) |
| --- | --- | --- | --- | --- | --- | --- | --- |
| 44.1 | CCO[C@@H]1C[C@H]2C(=O)NC3(CCC3)C(=O)N(C)[C@@H](C3CCCC3)C(=O)N(C)[C@H](C(=O)N3CCOCC3)CC(=O)N(CC)[C@@H](CC(C)C)C(=O)N[C@@H]([C@@H](C)CC)C(=O)N(C)CC(=O)N(C)[C@H]3CC(C)=CCN(C3=O)[C@@H](Cc3ccc(C(F)(F)F)cc3)C(=O)N(C)CC(=O)N[C@@H](CCc3cc(F)c(C(F)(F)F)c(F)c3)C(=O)N2C1 [PP1044] | C (A compound having a KD ratio of 0.1 or more and less than 3 is denoted as C) | C (A compound having a KD ratio of 0.1 or more and less than 3 is denoted as C) | – | – | – | – |
| 60.8 | CCO[C@@H]1C[C@H]2C(=O)NC3(CCC3)C(=O)N(C)[C@@H](C3CCCC3)C(=O)N(C)[C@H](C(=O)N(C)C)CC(=O)N(C)[C@@H](CC3CCCC3)C(=O)N[C@@H]([C@@H](C)CC)C(=O)N(C)CC(=O)N(C)[C@H]3C/C=C\CCN(C3=O)[C@@H](Cc3ccc(C)cc3)C(=O)N(C)CC(=O)N[C@@H](CCc3cc(C)c(C(F)F)c(F)c3)C(=O)N2C1 [PP2676] | A (a compound having 10 or more and less than 20 is denoted as A) | A (a compound having 10 or more and less than 20 is denoted as A) | – | – | – | – |
| 15.5 | CCCN1C(=O)CN(C)C(=O)CN(C)C(=O)[C@H]([C@@H](C)CC)NC(=O)[C@H](CC(C)C)N(C)C(=O)C[C@@H](C(=O)N2CCOCC2)N(C)C(=O)[C@H](C2CCCC2)N(C)C(=O)C(C)(C)NC(=O)[C@@H]2CCCN2C(=O)[C@H](CCc2ccc(C(F)(F)F)c(Cl)c2)NC(=O)CN(C)C(=O)[C@@H]1Cc1ccc(C(F)(F)F)cc1 [PP0230] ([NMeL]I[Sar][Sar][NPrPhe(4-CF3)][Sar][hPhe(3-Cl-4-CF3)]P[Aib][NMeGly(cPent)][NMeD]-Morpholide; lactam N-11) | C (A compound having a KD ratio of 0.1 or more and less than 3 is denoted as C) | B (a compound having 3 or more and less than 10 is denoted as B) | – | – | – | – |
| 5.7 | CCCC[C@H]1C(=O)N[C@@H]([C@@H](C)CC)C(=O)N(C)CC(=O)N(C)[C@H]2C/C=C\CCN(C2=O)[C@@H](Cc2ccc(C(F)(F)F)cc2)C(=O)N(C)CC(=O)N[C@@H](CCc2cc(F)c(C(F)(F)F)c(F)c2)C(=O)N2C[C@@H](C)C[C@H]2C(=O)NC2(CC(C)(C)C2)C(=O)N(C)[C@@H](C2CCCC2)C(=O)N(C)[C@H](C(=O)N(C)C)CC(=O)N1C [PP1661] | – | – | – | – | A (a compound having 10 or more and less than 20 is denoted as A) | A (a compound having 10 or more and less than 20 is denoted as A) |
| 17 | CC[C@H](C)[C@@H]1NC(=O)[C@H](C(C)C)N(C)C(=O)C[C@@H](C(=O)N(C)CC)N(C)C(=O)[C@H](C2CCCC2)N(C)C(=O)C2(CCC2)NC(=O)[C@@H]2C[C@H](C)CN2C(=O)[C@H](CCc2ccc(C(F)(F)F)c(OC)c2)NC(=O)CN(C)C(=O)[C@H](Cc2ccc(C(F)(F)F)cc2)N2CC/C=C\C[C@@H](C2=O)N(C)C(=O)CN(C)C1=O [PP2065] | – | – | B (a compound having 3 or more and less than 10 is denoted as B) | A (a compound having 10 or more and less than 20 is denoted as A) | – | – |
| 2.6 | CCCN1C(=O)[C@@H]2CCN2C(=O)[C@H](C)N(C)C(=O)[C@H]([C@@H](C)CC)NC(=O)[C@H](CC(C)C)N(C)C(=O)C[C@@H](C(=O)N(C)C)NC(=O)[C@H](C2CCCC2)N(C)C(=O)C2(CCCC2)NC(=O)[C@@H]2C[C@@H](OCC)CN2C(=O)[C@H](CCc2ccc(C(F)(F)F)c(Cl)c2)NC(=O)CN(C)C(=O)[C@@H]1Cc1ccc(C(F)(F)F)cc1 [PP0383] ([NMeL]I[NMeA][Aze][NPrPhe(4-CF3)][Sar][hPhe(3-Cl-4-CF3)][Hyp](Et)[Ac5c][NMeGly(cPent)]D-NMe2; lactam N-11) | B (a compound having 3 or more and less than 10 is denoted as B) | C (A compound having a KD ratio of 0.1 or more and less than 3 is denoted as C) | – | – | – | – |
